Legend:
[1] = test system: Genetic Absence Epilepsy Rat from Strasbourg (GAERS); test: Spike-and-wave discharges (EEG) in GAERS; format: in vivo
Protocol: GAERS experiments were conducted in accordance with the standards of the Canadian Council on Animal Care and approved by the University of Saskatchewan Animal Research Ethics Board (protocol 20130118). GAERS were initially sourced from the University of Melbourne to establish a Canadian GAERS colony in 2010 ([Powell et al., 2014]) and weanlings were provided by the Snutch Laboratory at the University of British Columbia to the University of Saskatchewan in 2013 (snutchlab.msl.ubc.ca) ([Marks et al., 2016]; [Marks et al., 2019]). GAERS were maintained on a 12 h light/dark cycle with lights on at 0700 and access to food and water ad libitum except during EEG recordings.
GAERS display reliable spike and wave discharges (SWD) characteristic of childhood absence epilepsy (CAE) ([Tringham et al., 2012]; [Marks et al., 2019]; [Roebuck et al., 2021]; [McElroy et al., 2022]; [Roebuck et al., 2022]). Experiments were conducted in male (n = 11; two removed due to poor recording integrity) and female (n = 5) GAERS. Group sizes were determined based on previous experiments and availability of age, sex, and litter matched animals ([Marks et al., 2019]; [McElroy et al., 2022]; [Roebuck et al., 2022]). Animals were well handled and habituated to the recording protocol prior to testing. Baseline recordings were performed prior to sessions with drug treatment and SB2193 (10, 30, 100 mg/kg) or vehicle (5 mL/kg) was administered (i.p.) ∼15–20 min prior to recordings using a within-subjects design (5–7 days washout periods between treatments). SB2193 was freshly prepared in ethanol-Kolliphor (Sigma Aldrich)-saline (1:1:18 ratio).
Construction and implantation of electrodes proceeded according to established protocols ([Farrell et al., 2018]; [Marks et al., 2019]; [McElroy et al., 2022]; [Roebuck et al., 2022]). Surgeries were performed under isoflurane anaesthesia with buprenorphine, anafen, and bupivicaine (topical) used as analgesics. Bipolar electrodes were chronically implanted bilaterally in somatosensory cortex (A/P 0.6 mm, M/L 5.5 mm, D/V −3.0 mm, relative to bregma) ([Polack et al., 2007]). Implants were secured with 3.2 mm stainless steel screws (one served as a ground) and dental cement. Animals were given a 1-week recovery period before habituation and testing.
Following recovery from surgery, animals were handled for 3–4 days and habituated to the EEG tether and hook-up process at least once before baseline recordings. Local field potentials (LFP) were acquired by tethered EEG (Grass Technologies), amplified 5,000x, and digitized at 100 Hz ([Farrell et al., 2018]; [Marks et al., 2019]; [McElroy et al., 2022]; [Roebuck et al., 2022]). Recordings (4 h) were conducted in two clear Plexiglas boxes (32 cm × 32 cm) and treatments were randomized such that each animal received each treatment. During recording sessions, animals were prevented from sleeping with gentle taps on the chamber door as necessary. Animals were perfused to confirm electrode placement following testing.
SWDs were analysed using a custom MATLAB (MathWorks) script developed by Dr. Stuart Cain and Jeff LeDue at the University of British Columbia. SWDs were assessed between 7 and 12 Hz and defined as bursts > 3x baseline amplitude >0.5 s as previously described ([Powell et al., 2014]; [Farrell et al., 2018]; [Marks et al., 2019]; [Roebuck et al., 2021]; [McElroy et al., 2022]; [Roebuck et al., 2022]). SWDs were analysed semi-automatically using Matlab and manually confirmed by a researcher blinded to treatment. A second researcher re-analysed a subset of files and interrater reliability was confirmed. Treatment data are normalized to initial non-treatment baseline data (e.g., % change) to account for SWD variability between subjects. Raw SWD data are also reported for comparison.
Time-binned data were analysed using a two-way analysis of variance (ANOVA) with factors of treatment (vehicle, 10, 30, 100 mg/kg SB2193) and time (1, 2, 3, 4 h post-treatment). […]

[2] = Brain concentration after sub-chronic administration in chow; format: in vivo, mouse; conditions: 5,000 mg/kg chow ad libitum P18–23, male and female mice, n = 10
Protocol: Plasma samples (50 μL) were spiked with an internal standard (diazepam) and vortexed with 1 M NaOH (50 μL) and methyl tert-butyl ether (1 mL) to achieve protein precipitation. The organic layer was isolated by centrifugation (4,000 g for 3 min) before being frozen for 60 min at −80°C, evaporated to dryness using N2, and reconstituted in 30% acetonitrile and 0.1% formic acid in water for analysis. Brain hemispheres were homogenised in a 10x w/v 1:1 methanol-water solution using a Biospec Tissue-Tearor (Bartlesville, United States) and centrifuged at 20,000 g for 30 min at 4°C. Supernatant (100 μL) was collected and prepared following the same method as plasma.
SB2193 and SB2193F concentrations in brain and plasma samples were assessed by high performance liquid chromatography-tandem mass spectrometry (HPLC-MS/MS) using a Shimadzu Nexera liquid chromatograph coupled with a Shimadzu 8,030 triple quadrupole mass spectrometer (Kyoto, Japan). […]
Quantification was achieved by comparing experimental samples to plasma and brain standards prepared with known concentrations of SB2193 or SB2193F. Samples were quantified against a 7-point standard curve (R ^2 > 0.98 for both analytes). […]

[3] = 100 mg/kg i.p., 4 h EEG recording
[4] = 30 and 100 mg/kg i.p., 4 h EEG recording

CCCCCn1cc(C(=O)N2CCN(C(=O)OC(C)(C)C)CC2)c2ccccc21 [SB2193]
SWD incidence, raw count data, compared to vehicle ([1]; 30 mg/kg i.p., 4 h EEG recording): significantly increased | SWD average duration, raw data, compared to vehicle [1, 3]: significantly increased | average SWD duration, normalized to baseline, compared to vehicle [1, 3]: increased | SWD frequency ([1]; 10, 30, 100 mg/kg i.p., 4 h EEG recording): No changes | effects on SWDs in the first hour following administration ([1]; 10, 30, 100 mg/kg i.p., first hour): No significant effects | SWD (total) duration, normalized to baseline, compared to vehicle [1, 4]: significantly increased | SWD incidence, normalized to baseline, compared to vehicle [1, 4]: significantly increased | SWD total duration, raw data, compared to vehicle [1, 4]: significantly increased | brain concentration [2]: 1700 ± 600 nM

— article PMC10110893, “[…]-derived synthetic cannabinoids inhibit T-type calcium channels with divergent effects on seizures in rodent models of epilepsy” (Frontiers in Physiology, 2023)
